Reference: the CombiSolv-Exp solvation set (Vermeire and Green 2021)

Assay: solvent given as SMILES

Clc1cc(-c2c(Cl)cc(Cl)c(Cl)c2Cl)c(Cl)c(Cl)c1Cl
Details | solvation free energy, 298 K [kcal/mol]
in O | -4.61

OC1COC(O)C(O)C1O (stereo not drawn)
Details | solvation free energy, 298 K [kcal/mol]
in O | -20.5

CCOC(=O)c1ccc(O)cc1
Details | solvation free energy, 298 K [kcal/mol]
in O | -9.2

CC(=O)C(C)(C)C
Details | solvation free energy, 298 K [kcal/mol]
in CCCCCC | -4.34
in CCCCCCC | -4.3
in CCCCCCCC | -4.21
in CCCCCCCCCC | -4.15
in O | -3.11

CC1=CCC23C(C)CCC(C(C)C)C2C13 (stereo not drawn)
Details | solvation free energy, 298 K [kcal/mol]
in O | 0.56

CCC(N)=O
Details | solvation free energy, 298 K [kcal/mol]
in O | -9.4

COC(=O)c1ccc(Br)cc1
Details | solvation free energy, 298 K [kcal/mol]
in CN(C)C=O | -9.25
in O | -4.26

FC(Cl)C(F)(F)F (stereo not drawn)
Details | solvation free energy, 298 K [kcal/mol]
in CCCCCCCCO | -1.67
in CN1CCCC1=O | -2.39
in CN(C)C=O | -2.44
in O | 0.79

OCC(O)C(O)C(O)CO (stereo not drawn)
Details | solvation free energy, 298 K [kcal/mol]
in CC(C)O | -13.4
in CCCCO | -13.3
in CCO | -13.8
in CN(C)C=O | -15.4
in O | -16.6

O=C(CC(=O)C(F)(F)F)C(F)(F)F
Details | solvation free energy, 298 K [kcal/mol]
in O | -4.56

C1CCCCCCC1
Details | solvation free energy, 298 K [kcal/mol]
in CCCCCCCCCCCCCCCC | -5.55
in CN1CCCC1=O | -4.77
in CN(C)C=O | -4.39
in COCCO | -4.52
in CS(C)=O | -3.85
in N#CCCCCC#N | -4.01
in NCCO | -3
in O | 0.91

CC1=CC2C(CCC(C)=CCC1)C2(C)C (stereo not drawn)
Details | solvation free energy, 298 K [kcal/mol]
in O | -0.52

c1ccc2cc3c(ccc4ccccc43)cc2c1
Details | solvation free energy, 298 K [kcal/mol]
in O | -6.26

CCCCCC
Details | solvation free energy, 298 K [kcal/mol]
in BrC(Br)C(Br)Br | -2.72
in Brc1cccc2ccccc12 | -3.07
in Brc1ccccc1 | -3.65
in C1=Cc2ccccc2C1 | -3.49
in C1CCC(C2CCCCC2)CC1 | -3.73
in C1CCCCC1 | -4.06
in C1CCOC1 | -3.9
in C1COCCO1 | -3.22
in C=CCCCC | -4.02
in C=CCCCCCC | -3.93
in C=CCCCCCCCC | -3.92
in C=CCCCCCCCCCCCCCC | -3.59
in CC1CCS(=O)(=O)C1 | -2.13
in CC1COC(=O)O1 | -2.04
in CC#N | -2.63
in CC(=O)CC(C)C | -3.59
in CC(=O)N(C)C | -2.76
in CC(=O)O | -2.89
in CC(=O)OCc1ccccc1 | -3.02
in CC(=O)c1ccccc1 | -3.04
in CC(C)(C)Cl | -4
in CC(C)(C)O | -3.33
in CC(C)=O | -3.26
in CC(C)CCCC(C)CCCC(C)CCCCC(C)CCCC(C)CCCC(C)C | -3.47
in CC(C)CCO | -3.31
in CC(C)CCl | -3.94
in CC(C)CO | -3.36
in CC(C)O | -3.21
in CC(C)OC(C)C | -3.98
in CC(O)CO | -1.94
in CCBr | -4.08
in CCC#N | -3.13
in CCC(C)(C)C | -4.04
in CCC(C)(C)OC | -3.92
in CCC(C)=O | -3.44
in CCC(C)Cl | -3.98
in CCCC#N | -3.07
in CCCC(=O)OCC | -3.64
in CCCC(C)=O | -3.52
in CCCCC | -4.11
in CCCCC#N | -3.27
in CCCCC(CC)COC(=O)CCCCC(=O)OCC(CC)CCCC | -3.33
in CCCCC(CC)COC(=O)c1ccccc1C(=O)OCC(CC)CCCC | -3.13
in CCCCCC#N | -3.28
in CCCCCC(C)=O | -3.54
in CCCCCCC | -3.97
in CCCCCCCC | -3.92
in CCCCCCCCC | -3.86
in CCCCCCCCC=CCCCCCCCC(=O)OCC(COC(=O)CCCCCCCC=CCCCCCCCC)OC(=O)CCCCCCCC=CCCCCCCCC | -3.45
in CCCCCCCCCC | -3.83
in CCCCCCCCCCCC | -3.73
in CCCCCCCCCCCCCC | -3.6
in CCCCCCCCCCCCCCCC | -3.64
in CCCCCCCCCCCCO | -3.31
in CCCCCCCCCOC(=O)c1ccccc1C(=O)OCCCCCCCCC | -3.23
in CCCCCCCCN(CCCCCCCC)CCCCCCCC | -3.49
in CCCCCCCCO | -3.36
in CCCCCCCO | -3.33
in CCCCCCO | -3.39
in CCCCCCOC(C)=O | -3.61
in CCCCCN(CCCCC)CCCCC | -3.67
in CCCCCO | -3.33
in CCCCCl | -3.91
in CCCCN(C=O)CCCC | -3.25
in CCCCN(CCCC)CCCC | -3.6
in CCCCO | -3.32
in CCCCOC(=O)c1ccccc1C(=O)OCCCC | -3.24
in CCCCOC(C)=O | -3.59
in CCCCOCCCC | -3.87
in CCCO | -3.16
in CCN1CCCC1=O | -2.88
in CCN(CC)C(C)=O | -3.11
in CCN(CC)CC | -4.01
in CCNC(C)=O | -2.92
in CCNC=O | -2.69
in CCO | -3.1
in CCOC(=O)c1ccccc1C(=O)OCC | -2.73
in CCOC(C)(C)C | -3.93
in CCOC(C)=O | -3.46
in CCOCC | -3.99
in CCOCCO | -2.96
in CCOCCOCCOCC | -3.42
in CCOc1ccccc1 | -3.49
in CN1CCCC1=O | -2.65
in CN1CCCCC1=O | -2.78
in CN1CCN(C)C1=O | -2.51
in CN(C)C=O | -2.62
in CN(C)P(=O)(N(C)C)N(C)C | -2.98
in CNC(C)=O | -2.74
in CNC=O | -2.36
in CO | -2.82
in COC(C)(C)C | -4.01
in COC(C)=O | -3.3
in COCCO | -2.7
in COCCOCCOCCOCCOC | -2.82
in COc1ccccc1 | -3.41
in CS(C)=O | -1.83
in Cc1ccc(C)cc1 | -3.87
in Cc1cccc2ccccc12 | -3.36
in Cc1cccc(C)c1 | -3.85
in Cc1cccc(O)c1 | -2.91
in Cc1ccccc1 | -3.87
in Cc1ccccn1 | -3.5
in ClC(Cl)(Cl)Cl | -4.08
in ClC(Cl)C(Cl)Cl | -3.35
in ClC(Cl)Cl | -3.94
in ClCCCl | -3.45
in ClCCl | -3.75
in Clc1cccc2ccccc12 | -3.23
in Clc1ccccc1 | -3.85
in FC(F)(F)C(F)(F)C(F)(F)C(F)(F)C(F)(F)C(F)(F)C(F)(F)C(F)(F)F | -2.53
in FC(F)(F)C(F)(F)C(F)(F)C(F)(F)C(F)(F)C(F)(F)F | -2.67
in Fc1ccccc1 | -3.88
in ICI | -2.2
in N#CCCCC#N | -1.5
in N#CCCCCC#N | -1.86
in N#CCCO | -1.84
in N#CCCOCCC#N | -0.89
in N#CCc1ccccc1 | -2.62
in N#Cc1ccccc1 | -3.13
in NC=O | -0.53
in NCCN | -1.85
in NCCO | -0.77
in NCc1ccccc1 | -2.92
in Nc1ccccc1 | -2.36
in O=C1CCCCC1 | -3.37
in O=C1CCCO1 | -2.22
in O=C(O)C(Cl)Cl | -2.74
in O=CN1CCOCC1 | -1.98
in O=Cc1ccco1 | -2.37
in O=S=O | -3.18
in OC1CCCCC1 | -3.1
in OCC1CCCO1 | -2.62
in OCCCCCO | -2.03
in OCCCCO | -1.88
in OCCCO | -1.54
in OCCCl | -2.22
in OCCOCCO | -1.43
in OCCOCCOCCO | -1.54
in OCCOCCOCCOCCO | -1.65
in OCCS | -1.9
in OCCc1ccccc1 | -2.75
in OCc1ccccc1 | -2.66
in OCc1ccco1 | -2.27
in S=C=S | -4.03
in c1ccc2c(c1)CCCC2 | -3.65
in c1ccc2ncccc2c1 | -3.1
in c1ccc(C2CCCCC2)cc1 | -3.62
in c1ccccc1 | -3.84
in c1ccncc1 | -3.27

Oc1ccccc1O
Details | solvation free energy, 298 K [kcal/mol]
in CCCCCC | -5.88
in CCCCCCCC | -6.04
in Cc1ccc(C)cc1 | -7.95
in Cc1cccc(C)c1 | -7.97
in Cc1ccccc1C | -8.02
in O | -9.82
